Measurements published in US20220289728A1, “MODULATORS OF TREX1” (Constellation Pharmaceuticals, Inc., priority 2019, published 2022).

Assays:
full length human TREX1 = target: T1, full length human TREX1 (Homo sapiens, UniProt Q9NSU2); test: TREX1 Biochemical Assay (fluorescence, dsDNA substrate degradation); details: 150 pM TREX1, 60 nM dsDNA substrate, 25 minutes at room temperature
T1 construct: N-terminally His-Tev tagged full length human TREX1; His-TEV (His tag with TEV site) (N); made in house; host or cells: E. coli
T1 sequence (Q9NSU2 1-314): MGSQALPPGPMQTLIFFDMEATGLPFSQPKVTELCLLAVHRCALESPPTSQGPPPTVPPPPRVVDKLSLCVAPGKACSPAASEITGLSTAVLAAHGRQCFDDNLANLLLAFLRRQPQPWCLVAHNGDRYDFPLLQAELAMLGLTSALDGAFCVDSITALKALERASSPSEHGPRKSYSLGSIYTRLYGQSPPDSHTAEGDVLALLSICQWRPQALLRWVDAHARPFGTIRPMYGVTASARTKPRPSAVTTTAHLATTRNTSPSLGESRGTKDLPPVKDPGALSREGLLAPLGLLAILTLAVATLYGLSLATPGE
Description: Degradation of the dsDNA liberates free fluorophore to produce a fluorescent signal. Specifically, 7.5 μL of N-terminally His-Tev tagged full length human TREX1 (expressed in E. coli and purified in house) in reaction buffer (50 mM Tris (pH 7.4), 150 mM NaCl, 2 mM DTT, 0.1 mg/mL BSA, 0.01% (v/v) Tween-20 and 100 mM MgCl2) was added to a 384-well Black ProxiPlate Plus (Perkin Elmer) which already contained compound (150 nL) at varying concentrations as a 10 point dose-response in DMSO. To this was added 7.5 μL of dsDNA substrate (Strand A: 5′ TEX615/GCT AGG CAG 3′; Strand B: 5′ CTG CCT AGC/IAbRQSp (Integrated DNA Technologies)) in reaction buffer. Final concentrations were 150 pM TREX1, 60 nM dsDNA substrate in reaction buffer with 1.0% DMSO (v/v). After 25 minutes at room temperature, reactions were quenched by the addition of 5 μL of stop buffer (same as reaction buffer plus 200 mM EDTA). Final concentrations in the quenched reaction were 112.5 pM TREX1, 45 nM DNA and 50 mM EDTA in a volume of 20 μL. After a 5-minute incubation at room temperature, plates were read in a laser sourced Envision (Perkin-Elmer), measuring fluorescence at 615 nm following excitation w/570 nm light. IC50 values were calculated by comparing the measured fluorescence at 615 nm ratio relative to control wells pre-quenched w/stop buffer (100% inhibition) and no inhibitor (0% inhibition) controls as using non-linear least square four parameter fits and either Genedata or GraphPad Prism (GraphPad Software, Inc.).

HCT116 dual cells = test: HCT116 Cell Assay (Lucia luciferase reporter of Type I interferon induction); type: cell-based, human; details: pBR322/BstNI DNA transfection, Lucia luciferase at 48 h, relative to 10 uM compound 39
Text: HCT116 dual cells (Invivogen, San Diego, Calif., USA) are derived from the human HCT116 colorectal carcinoma cell line. Cells have been selected for the stable integration of SEAP and Luciferase reporter genes, which expression is under the control of 5 tandem response elements for NF-KB/AP1 and STAT1/STAT2, respectively. The cell line was used to monitor Type I interferon induction and subsequent signaling by measuring the activity of the Lucia luciferase secreted in the culture medium.
HCT116 cells were plated in 96-well plate(s) at 40,000 cells/well in 100 uL DMEM supplemented with 10% FBS and 25 mM Hepes (pH 7.2-7.5). After overnight settling, cells were treated with TREX1i for 4 h (maximum DMSO fraction was 0.1%) before 1.25 ug/mL pBR322/BstNI restriction digest (New England Biolabs, Ipswich, Mass., USA) was transfected with Lipofectamine LTX (ThermoFisher, Grand Island, N.Y., USA), according to product manual recommendations. Briefly, Lipofectamine LTX (0.4 uL/well) was diluted in OptiMEM (5 uL/well). pBR322/BstNI (100 ng/well) was diluted in OptiMEM (5 uL/well) before Plus reagent (0.1 uL/100 ng DNA) was added. After 5 min incubation at room temperature, the DNA mixture was mixed dropwise with the diluted Lipofectamine LTX. After an additional 10 min incubation, the transfection mix (10 uL/well) was added to the cells. Cells were maintained at 37° C. for 48 h before monitoring the Lucia Luciferase activity from the cell culture medium. EC50 values were calculated by comparing the measured luminescence relative to 10 uM compound 39 (100% inhibition) and no inhibitor (0% inhibition) controls using non-linear least-squares four parameter fits in either Genedata Screener or GraphPad Prism (GraphPad Software, Inc.).

[1] = target: T2, human TREX2 (residues M44-A279) (Homo sapiens, UniProt Q9BQ50); test: TREX2 Biochemical Assay (fluorescence, dsDNA substrate degradation); details: 2.5 nM TREX2, 60 nM dsDNA substrate, 25 minutes at room temperature
T2 construct: human TREX2 (residues M44-A279, expressed in E. coli); His-TEV (His tag with TEV site) (N); made in house; host or cells: E. coli
T2 sequence (Q9BQ50 44-279 isoform Q9BQ50-1): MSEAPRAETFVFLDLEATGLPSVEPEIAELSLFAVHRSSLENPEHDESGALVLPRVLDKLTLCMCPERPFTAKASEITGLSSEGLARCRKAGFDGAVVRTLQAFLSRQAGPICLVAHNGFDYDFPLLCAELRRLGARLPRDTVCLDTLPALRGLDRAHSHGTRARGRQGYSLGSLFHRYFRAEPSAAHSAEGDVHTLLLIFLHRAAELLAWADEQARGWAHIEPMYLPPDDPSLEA
Description: Degradation of the dsDNA liberates free fluorophore to produce a fluorescent signal. Specifically, 7.5 μL of N-terminally His-Tev tagged human TREX2 (residues M44-A279, expressed in E. coli and purified in house) in reaction buffer (50 mM Tris (pH 7.4), 150 mM NaCl, 2 mM DTT, 0.1 mg/mL BSA, 0.01% (v/v) Tween-20 and 100 mM MgCl2) was added to a 384-well Black ProxiPlate Plus (Perkin Elmer) which already contained compound (150 nL) at varying concentrations as a 10 point dose-response in DMSO. To this was added 7.5 μL of dsDNA substrate (Strand A: 5′ TEX615/GCT AGG CAG 3′; Strand B: 5′ CTG CCT AGC/IAbRQSp (IDT)) in reaction buffer. Final concentrations were 2.5 nM TREX2, 60 nM dsDNA substrate in reaction buffer with 1.0% DMSO (v/v). After 25 minutes at room temperature, reactions were quenched by the addition of 5 μL of stop buffer (same as reaction buffer plus 200 mM EDTA). Final concentrations in the quenched reaction mixture were […] TREX2, 45 nM DNA and 50 mM EDTA in a volume of 20 μL. After a 5-minute incubation at room temperature, plates were read in a laser sourced Envision (Perkin-Elmer), measuring fluorescence at 615 nm following excitation w/570 nm light. IC50 values were calculated by comparing the measured fluorescence at 615 nm ratio relative to control wells pre-quenched w/stop buffer (100% inhibition) and no inhibitor (0% inhibition) controls as using non-linear least square four parameter fits and either Genedata or GraphPad Prism (GraphPad Software, Inc.).

[2] = Homo sapiens, HCT-116, 4 h pre-treatment

| SMILES | IC50 (full length human TREX1) [µM] | EC50 (HCT116 dual cells; 4 h pre-treatment) [µM] | IC50 [1] [µM] | EC50 (HCT116 dual cells; [2]) [µM] |
| --- | --- | --- | --- | --- |
| CN(C)C(=O)c1ccc(C(c2ccccc2)N(C)c2nc(C(=O)Nc3cnoc3)c(O)c(=O)n2C)c(Cl)c1 (single isomer, unassigned) [Example 94] | < 0.1 | < 1 | < 1 |  |
| CN(Cc1cc(Cl)ccc1Cl)c1nc(C(=O)Nc2cnoc2)c(O)c(=O)n1C [Example 5] | < 0.1 |  | 1 to 10 | 1 to 10 |
| CN(Cc1ccccc1-c1ccccc1)c1nc(C(=O)Nc2cnoc2)c(O)c(=O)n1C [Example 18] | < 0.1 |  | 1 to 10 | 10 to 100 |
| Cc1cccc(Cl)c1C(c1ccccn1)N(C)c1nc(C(=O)Nc2cnoc2)c(O)c(=O)n1C (single isomer, unassigned) [Example 62] | < 0.1 |  | < 1 | < 1 |
| CCN(c1nc(C(=O)Nc2cnoc2)c(O)c(=O)n1C)C(c1ccccc1)c1ccccc1Cl (single isomer, unassigned) [Example 92] | < 0.1 | 1 to 10 | < 1 |  |
| CN(Cc1ccc2ccccc2c1)c1nc(C(=O)Nc2cnoc2)c(O)c(=O)n1C [Example 14] | < 0.1 |  | 1 to 10 | 10 to 100 |
| Cc1cc(C(c2ccccc2Cl)N(C)c2nc(C(=O)Nc3cnoc3)c(O)c(=O)n2C)ccn1 (single isomer, unassigned) [Example 89] | < 0.1 |  | < 1 | < 1 |
| CN(c1nc(C(=O)Nc2cnoc2)c(O)c(=O)n1C)C(c1ccccc1)c1ccccc1C#N (single isomer, unassigned) [Example 86] | < 0.1 | < 1 | < 1 |  |
| CN(c1nc(C(=O)Nc2cnoc2)c(O)c(=O)n1C)C(c1ccccc1)c1ccccn1 (single isomer, unassigned) [Example 42] | < 0.1 | 1 to 10 | 1 to 10 |  |
| CN(c1nc(C(=O)Nc2cnoc2)c(O)c(=O)n1C)C(c1ccccc1)c1ccccc1C(F)(F)F (single isomer, unassigned) [Example 84] | < 0.1 | < 1 | < 1 |  |
| Cc1cc(C(c2ccccc2Cl)N(C)c2nc(C(=O)Nc3cnoc3)c(O)c(=O)n2C)ccn1 (single isomer, unassigned) [Example 90] | < 0.1 | 1 to 10 | < 1 |  |
| CN(Cc1cccc(Cl)c1)c1nc(C(=O)Nc2cnoc2)c(O)c(=O)n1C [Example 8] | < 0.1 |  | 1 to 10 | 1 to 10 |
| CN(c1nc(C(=O)Nc2cnoc2)c(O)c(=O)n1C)C(c1ccccc1)c1ccccc1Cl (single isomer, unassigned) [Example 40] | < 0.1 | < 1 | < 1 |  |
| CN(c1nc(C(=O)Nc2cnoc2)c(O)c(=O)n1C)C(c1ccccn1)c1ccccc1Cl (single isomer, unassigned) [Example 57] | < 0.1 | < 1 | < 1 |  |
| CN(c1nc(C(=O)Nc2cnoc2)c(O)c(=O)n1C)C(c1ccccc1)c1ncccc1Cl (single isomer, unassigned) [Example 54] | < 0.1 | < 1 | < 1 |  |
| CN(c1nc(C(=O)Nc2cnoc2)c(O)c(=O)n1C)C(c1ccccc1)c1ncccc1Cl (single isomer, unassigned) [Example 53] | < 0.1 |  | < 1 | < 1 |
| CN(c1nc(C(=O)Nc2cnoc2)c(O)c(=O)n1C)C(c1ccccc1)c1cc(F)ccc1Cl (single isomer, unassigned) [Example 88] | < 0.1 | < 1 | < 1 |  |

Further lines, results first:

| IC50 (full length human TREX1) [µM] | EC50 (HCT116 dual cells; 4 h pre-treatment) [µM] | IC50 [1] [µM] | EC50 (HCT116 dual cells; [2]) [µM] | SMILES |
| --- | --- | --- | --- | --- |
| < 0.1 | 1 to 10 | < 1 |  | CN(c1nc(C(=O)Nc2cnoc2)c(O)c(=O)n1C)C(c1ccccc1)c1cccc(C#N)c1 (single isomer, unassigned) [Example 51] |
| < 0.1 |  | < 1 | < 1 | CN(c1nc(C(=O)Nc2cnoc2)c(O)c(=O)n1C)C(c1ccccc1)c1cccc(C#N)c1 (single isomer, unassigned) [Example 50] |
| < 0.1 |  | 1 to 10 | 1 to 10 | CN(Cc1ccccc1)c1nc(C(=O)Nc2cnoc2)c(O)c(=O)n1C [Example 2] |
| < 0.1 |  | < 1 | < 1 | CN(c1nc(C(=O)Nc2cnoc2)c(O)c(=O)n1C)C(c1ccccc1Cl)C1CC1 (single isomer, unassigned) [Example 68] |
| < 0.1 |  | 1 to 10 | 10 to 100 | CN(Cc1cccnc1)c1nc(C(=O)Nc2cnoc2)c(O)c(=O)n1C [Example 32] |
| < 0.1 |  | 1 to 10 | 10 to 100 | CN(Cc1cccc(C(F)(F)F)c1)c1nc(C(=O)Nc2cnoc2)c(O)c(=O)n1C [Example 10] |
| < 0.1 |  | 1 to 10 | 1 to 10 | C[C@@H](c1ccccc1)N(C)c1nc(C(=O)Nc2cnoc2)c(O)c(=O)n1C [Example 28] |
| < 0.1 |  | 1 to 10 | 1 to 10 | CN(Cc1cccc2ccccc12)c1nc(C(=O)Nc2cnoc2)c(O)c(=O)n1C [Example 15] |
